The values that follow come from patent publication US12129237B2, “Substituted diaminocarboxamide and diaminocarbonitrile pyrimidines, compositions thereof, and methods of treatment therewith” (SIGNAL PHARMACEUTICALS, LLC, priority 2011, dated 2024).

For one experiment, the target named is T1, JNK1 (Homo sapiens, UniProt P45983).
T1 construct: purchased Carna Biosciences
T1 sequence (P45983 whole entry): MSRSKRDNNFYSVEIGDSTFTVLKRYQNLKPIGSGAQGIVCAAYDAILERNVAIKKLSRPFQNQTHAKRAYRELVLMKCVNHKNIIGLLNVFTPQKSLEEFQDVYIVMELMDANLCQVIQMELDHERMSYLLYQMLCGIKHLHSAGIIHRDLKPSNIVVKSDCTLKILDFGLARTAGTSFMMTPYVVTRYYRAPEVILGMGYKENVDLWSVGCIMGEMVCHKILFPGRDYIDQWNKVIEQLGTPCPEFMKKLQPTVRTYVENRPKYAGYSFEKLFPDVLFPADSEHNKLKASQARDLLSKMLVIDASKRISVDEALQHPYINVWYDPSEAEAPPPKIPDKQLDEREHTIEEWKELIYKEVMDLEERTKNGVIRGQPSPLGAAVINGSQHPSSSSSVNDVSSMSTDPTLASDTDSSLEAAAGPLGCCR
The experiment is described as follows: JNK1 biochemical assays (one or more of: time resolved fluorescence, Z'-LYTE Cascade, radioactive). The following applies: Table 2; JNK1 IC50 activity level; read-out: Act. Level.
On to `COc1ccc(CCNc2ncc(C(N)=O)c(Nc3ccccc3)n2)cc1` [Example B-38, 2-(4-methoxyphenethylamino)-4-(phenylamino)pyrimidine-5-carboxamide], for which the IC50 fell in the range of 200 to 800 nM. With `CC(C)Nc1nc(N[C@H]2CCc3cnccc3C2)ncc1C(N)=O` [Example B-91, (S)-4-(isopropylamino)-2-(5,6,7,8-tetrahydroisoquinolin-6-ylamino)pyrimidine-5-carboxamide], the IC50 fell in the range of 200 to 800 nM.

The same experiment, now with this note: Table 3; JNK1 IC50 activity level; read-out: Act. Level.
On to `CO[C@H]1CC[C@H](Nc2ncc(C#N)c(N[C@H]3CC[C@H](O)CC3)n2)CC1` [Example C-15, 4-((1r,4r)-4-hydroxycyclohexylamino)-2-((1r,4r)-4-methoxycyclohexylamino) pyrimidine-5-carbonitrile], for which the IC50 lay in the range of 800 to 1000 nM.

In the case of `N#Cc1cnc(NC2CCC(F)(F)CC2)nc1N[C@@H]1CCC[C@@H]1CO` [Example C-64, 2-(4,4-difluorocyclohexylamino)-4-((1R,2S)-2-(hydroxymethyl)cyclopentylamino) pyrimidine-5-carbonitrile], the IC50 lay within 200 to 800 nM. For the compound `CO[C@H]1CC[C@H](Nc2ncc(C#N)c(N[C@@H]3CC[C@@H](C)C(O)C3)n2)CC1` (stereo partly drawn) [Example C-46, 4-((1R,3R,4R)-3-hydroxy-4-methylcyclohexylamino)-2-((1r,4R)-4-methoxycyclohexylamino) pyrimidine-5-carbonitrile], the IC50 was below 200 nM. Take `N#Cc1cnc(N[C@H]2CC[C@H](O)CC2)nc1NC1CC(F)(F)C1` [Example C-58, 4-(3,3-difluorocyclobutylamino)-2-((1r,4r)-4-hydroxycyclohexylamino) pyrimidine-5-carbonitrile]: the IC50 lay within 1000 to 10000 nM. As for `N#Cc1cnc(N[C@H]2CC[C@H](O)CC2)nc1N[C@@H]1CCCC[C@H](O)C1` [Example C-36], the IC50 was below 200 nM.

Staying with this experiment, now noted: one or more of the JNK1 biochemical assays; read-out: Act. Level (JNK1 IC50 activity level).
As to `CC1(Nc2nc(N[C@H]3CCCOC3)ncc2C(N)=O)CCC1` [Example 403, (S)-4-(1-methylcyclobutylamino)-2-(tetrahydro-2H-pyran-3-ylamino)pyrimidine-5-carboxamide], the IC50 is below 200 nM. Consider `CC1CCC1Nc1nc(N[C@H]2CC[C@H](O)CC2)ncc1C(N)=O` (stereo partly drawn) [Example 245, 2-((1r,4r)-4-hydroxycyclohexylamino)-4-(2-methylcyclobutylamino)pyrimidine-5-carboxamide], for which the IC50 was below 200 nM. Same read-out and setting: to `C[C@@H](Nc1nc(NC23CCC(O)(CC2)CC3)ncc1C(N)=O)C1CC1` [Example 408, (R)-4-(1-cyclopropylethylamino)-2-(4-hydroxybicyclo[2.2.2]octan-1-ylamino)pyrimidine-5-carboxamide] belongs below 200 nM. As to `CC(C)(C)Nc1nc(NC2COC2)ncc1C(N)=O` [Example 303, 4-(tert-butylamino)-2-(oxetan-3-ylamino)pyrimidine-5-carboxamide], the IC50 lay within 200 to 800 nM.

With `CC1(Nc2ncc(C(N)=O)c(NC3CCC(C)(C)C(O)C3)n2)CC1` (stereo not drawn) [Example 431, 4-(3-hydroxy-4,4-dimethylcyclohexylamino)-2-(1-methylcyclopropylamino)pyrimidine-5-carboxamide], the IC50 was below 200 nM. As for `CC(C)(C)C(C)(C)Nc1nc(N[C@H]2CC[C@H](O)CC2)ncc1C(N)=O` [Example 334, 2-((1r,4r)-4-hydroxycyclohexylamino)-4-(2,3,3-trimethylbutan-2-ylamino)pyrimidine-5-carboxamide], the IC50 was below 200 nM.

As for `CC[C@H](Nc1nc(N[C@H]2CC[C@H](O)CC2)ncc1C(N)=O)C1CC1` [Example 384, 4-((S)-1-cyclopropylpropylamino)-2-((1r,4S)-4-hydroxycyclohexylamino)pyrimidine-5-carboxamide], the IC50 was below 200 nM.

On to `CCC(C)(C)Nc1ncc(C(N)=O)c(N[C@@H]2CCC[C@H](O)C2)n1` [Example 351, 4-((1R,3S)-3-hydroxycyclohexylamino)-2-(tert-pentylamino)pyrimidine-5-carboxamide], for which the IC50 is below 200 nM. As to `CC12CC(Nc3nc(NC45CCC(O)(CC4)C5)ncc3C(N)=O)(C1)C2` [Example 490, 2-(4-hydroxybicyclo[2.2.1]heptan-1-ylamino)-4-(3-methylbicyclo[1.1.1]pentan-1-ylamino)pyrimidine-5-carboxamide], the IC50 was below 200 nM. As for `CN(C)C(=O)[C@H]1CC[C@H](Nc2ncc(C(N)=O)c(NC34CC(C3)C4)n2)CC1` [Example 418, 4-(bicyclo[1.1.1]pentan-1-ylamino)-2-((1r,4r)-4-(dimethylcarbamoyl)cyclohexylamino)pyrimidine-5-carboxamide], the IC50 was below 200 nM. With `CC(C)(Nc1nc(NC2CCOCC2)ncc1C(N)=O)C1CC1` [Example 467, 4-(2-cyclopropylpropan-2-ylamino)-2-(tetrahydro-2H-pyran-4-ylamino)pyrimidine-5-carboxamide], the IC50 is below 200 nM. Still for that read-out and setting: to `CC1CCC1Nc1nc(N[C@H]2CC[C@H](OCC(F)(F)F)CC2)ncc1C(N)=O` (stereo partly drawn) [Example 265, 4-(2-methylcyclobutylamino)-2-((1r,4r)-4-(2,2,2-trifluoroethoxy)cyclohexylamino)pyrimidine-5-carboxamide] belongs below 200 nM. In the case of `C[C@@H]1CC[C@@H](Nc2nc(NC3COC3)ncc2C(N)=O)C[C@H]1O` [Example 312, 4-((1R,3R,4R)-3-hydroxy-4-methylcyclohexylamino)-2-(oxetan-3-ylamino)pyrimidine-5-carboxamide], the IC50 is below 200 nM. `CC[C@@H](Nc1nc(N[C@H]2CC[C@H](O)CC2)ncc1C(N)=O)C1CC1` [Example 385, 4-((R)-1-cyclopropylpropylamino)-2-((1r,4R)-4-hydroxycyclohexylamino)pyrimidine-5-carboxamide]: the IC50 is below 200 nM. Still for that read-out and setting: the result for `CO[C@H]1CC[C@H](Nc2ncc(C(N)=O)c(NC3CCC3C)n2)CC1` (stereo partly drawn) [Example 243, 2-((1r,4r)-4-methoxycyclohexylamino)-4-(2-methylcyclobutylamino)pyrimidine-5-carboxamide] reads below 200 nM; that for `C[C@@H](Nc1nc(N[C@@H]2CCC[C@H](O)C2)ncc1C(N)=O)C1CC1` [Example 423, 4-((R)-1-cyclopropylethylamino)-2-((1R,3S)-3-hydroxycyclohexylamino)pyrimidine-5-carboxamide], below 200 nM. Take `CC1(Nc2nc(N[C@H]3CC[C@H](OC4CC4)CC3)ncc2C(N)=O)CCC1` [Example 400, 2-((1r,4r)-4-cyclopropoxycyclohexylamino)-4-(1-methylcyclobutylamino)pyrimidine-5-carboxamide]: the IC50 was below 200 nM.

The experiment is the same for the next values; noted with them: tested in one or more of the JNK1 biochemical assays; read-out: Act. Level (JNK1 biochemical assay IC50 activity level).
Take `CC(C)Nc1nc(NC2CCC(F)(F)CC2)ncc1C(N)=O` [Example A-3, 2-(4,4-difluorocyclohexylamino)-4-(isopropylamino)pyrimidine-5-carboxamide]: the IC50 is below 200 nM. As to `CNC(=O)[C@H]1CC[C@H](Nc2ncc(C(N)=O)c(NC(C)C)n2)CC1` [Example A-199, 4-(isopropylamino)-2-((1r,4r)-4-(methylcarbamoyl)cyclohexylamino)pyrimidine-5-carboxamide], the IC50 is below 200 nM. Regarding `NC(=O)c1cnc(NC2CCCC2)nc1N[C@H]1CC[C@@H](O)CC1` [Example A-128, 2-(cyclopentylamino)-4-((1s,4s)-4-hydroxycyclohexylamino)pyrimidine-5-carboxamide], the IC50 is below 200 nM. On to `CCO[C@H]1CC[C@H](Nc2ncc(C(N)=O)c(N[C@H]3CCC[C@@H]3O)n2)CC1` [Example A-117, 2-((1r,4S)-4-ethoxycyclohexylamino)-4-((1S,2S)-2-hydroxycyclopentylamino)pyrimidine-5-carboxamide], for which the IC50 is below 200 nM.

Take `CCNC(=O)[C@H]1CC[C@@H](Nc2nc(NC(C)C)ncc2C(N)=O)CC1` [Example A-141, 4-((1s,4s)-4-(ethylcarbamoyl)cyclohexylamino)-2-(isopropylamino)pyrimidine-5-carboxamide]: the IC50 lay within 1000 to 10000 nM. Same read-out and setting: the result for `NC(=O)c1cnc(NC2CCCCC2)nc1NC1CCCC1` [Example A-149, 2-(cyclohexylamino)-4-(cyclopentylamino)pyrimidine-5-carboxamide] reads below 200 nM. In the case of `CO[C@H]1CCC[C@H](Nc2ncc(C(N)=O)c(N[C@@H]3CCC[C@H](O)C3)n2)CC1` [Example A-200, 4-((1R,3S)-3-hydroxycyclohexylamino)-2-((1S,4S)-4-methoxycycloheptylamino)pyrimidine-5-carboxamide], the IC50 is below 200 nM. For `CC1(Nc2ncc(C(N)=O)c(N[C@@H]3CCCC[C@H](O)C3)n2)CCOCC1` [Example A-181, 4-((1R,3S)-3-hydroxycycloheptylamino)-2-(4-methyltetrahydro-2H-pyran-4-ylamino)pyrimidine-5-carboxamide], the IC50 is below 200 nM. Same read-out and setting: to `CO[C@H]1CC[C@H](Nc2ncc(C(N)=O)c(N[C@H]3CCCNC3)n2)CC1` [Example A-48, 2-((1r,4S)-4-methoxycyclohexylamino)-4-((S)-piperidin-3-ylamino)pyrimidine-5-carboxamide] belongs 800 to 1000 nM.

For `C[C@]1(O)CCC[C@@H](Nc2nc(N[C@H]3CC[C@H](OC(F)F)CC3)ncc2C(N)=O)C1` [Example A-170, 2-((1r,4R)-4-(difluoromethoxy)cyclohexylamino)-4-((1R,3S)-3-hydroxy-3-methylcyclohexylamino)pyrimidine-5-carboxamide], the IC50 is below 200 nM.

For the compound `C[C@@H]1CC[C@@H](Nc2nc(NC3CCC(F)(F)CC3)ncc2C(N)=O)C[C@H]1O` [Example A-198, 2-(4,4-difluorocyclohexylamino)-4-((1R,3R,4R)-3-hydroxy-4-methylcyclohexylamino)pyrimidine-5-carboxamide], the IC50 was below 200 nM. As to `CO[C@H]1CC[C@H](Nc2ncc(C(N)=O)c(N[C@H]3CCCC[C@](C)(O)C3)n2)CC1` [Example A-184, 4-((1S,3S)-3-hydroxy-3-methylcycloheptylamino)-2-((1r,4S)-4-methoxycyclohexylamino)pyrimidine-5-carboxamide], the IC50 was in the range of 200 to 800 nM.
